Measured values taken from ChEMBL document CHEMBL4699524 (Bioorg Med Chem Lett, 2020).

Experiments:
Plasmodium falciparum [1] = assay: Antiplasmodial activity against chloroquine-sensitive Plasmodium falciparum NF54 by LDH assay; type: functional, organism-based
Plasmodium falciparum [2] = assay: Antiplasmodial activity against chloroquine-resistant Plasmodium falciparum Dd2 by LDH assay; type: functional, organism-based
CHO = assay: Cytotoxicity against CHO cells assessed as reduction in cell viability by MTT assay; type: cell-based; conditions: Cricetulus griseus
Leishmania donovani [3] = assay: Antileishmanial activity against Leishmania donovani 1S promastigotes assessed as inhibition of parasite growth incubated for 72 hrs by resazurin dye based assay; type: functional, organism-based
Leishmania donovani [4] = assay: Antileishmanial activity against Leishmania donovani 9515 promastigotes assessed as inhibition of parasite growth incubated for 72 hrs by resazurin dye based assay; type: functional, organism-based; conditions: Leishmania donovani, 9515, 72 h
Leishmania major = assay: Antileishmanial activity against Leishmania major IR-173 promastigotes assessed as inhibition of parasite growth incubated for 72 hrs by resazurin dye based assay; type: functional, organism-based; conditions: IR-173, 72 h
[5] = Selectivity index, ratio of IC50 for CHO cells to IC50 for antileishmanial activity against Leishmania donovani 9515 by resazurin dye based assay; type: toxicity; conditions: hamster, read-out: Ratio IC50
[6] = Selectivity index, ratio of IC50 for CHO cells to IC50 for antileishmanial activity against Leishmania donovani 1S by resazurin dye based assay; type: toxicity; conditions: hamster, read-out: Ratio IC50
Leishmania donovani [7] = assay: Potency index, ratio of dihydroartemisinin IC50 to test compound IC50 for antileishmanial activity against Leishmania donovani 1S promastigotes incubated for 72 hrs by resazurin dye based assay; type: functional
Leishmania donovani [8] = assay: Potency index, ratio of dihydroartemisinin IC50 to test compound IC50 for antileishmanial activity against Leishmania donovani 9515 promastigotes incubated for 72 hrs by resazurin dye based assay; type: functional
Leishmania donovani [9] = assay: Potency index, ratio of artemether IC50 to test compound IC50 for antileishmanial activity against Leishmania donovani 1S promastigotes incubated for 72 hrs by resazurin dye based assay; type: functional
Leishmania donovani [10] = assay: Potency index, ratio of artemether IC50 to test compound IC50 for antileishmanial activity against Leishmania donovani 9515 promastigotes incubated for 72 hrs by resazurin dye based assay; type: functional
Leishmania donovani [11] = assay: Potency index, ratio of artesunate IC50 to test compound IC50 for antileishmanial activity against Leishmania donovani 1S promastigotes incubated for 72 hrs by resazurin dye based assay; type: functional
Leishmania donovani [12] = assay: Potency index, ratio of artesunate IC50 to test compound IC50 for antileishmanial activity against Leishmania donovani 9515 promastigotes incubated for 72 hrs by resazurin dye based assay; type: functional
in vitro = conditions: hamster, CHO cells

Row | Compound | IC50 (Plasmodium falciparum [1]) | IC50 (Plasmodium falciparum [2]) | IC50 (CHO) | IC50 (Leishmania donovani [3]) | IC50 (Leishmania donovani [4]) | IC50 (Leishmania major) | selectivity ratio [5] | selectivity ratio [6] | Ratio IC50 (Leishmania donovani [7]) | Ratio IC50 (Leishmania donovani [8]) | Ratio IC50 (Leishmania donovani [9]) | Ratio IC50 (Leishmania donovani [10]) | Ratio IC50 (Leishmania donovani [11]) | Ratio IC50 (Leishmania donovani [12]) | selectivity ratio (in vitro)
1 | Cc1csc(C(=O)OCC2(C)O[C@@H]3O[C@@]4(C)CC[C@H]5[C@H](C)CC[C@@H]2[C@@]35OO4)c1 (stereo partly drawn) | 0.0072 µM | 0.0071 µM | > 100 µM | 5.61 µM | 6.48 µM | 4.26 µM | 18 | > 15 | 30 | 30 | 30 | 30 | 30 | 30 | 24
2 | C[C@@H]1CC[C@H]2C(C)(COC(=O)c3cc4ccccc4o3)O[C@@H]3O[C@@]4(C)CC[C@@H]1[C@]32OO4 (stereo partly drawn) | 0.0146 µM | 0.0071 µM | > 100 µM | 13.5 µM | 10.3 µM | 11.2 µM | 7 | > 10 | – | – | – | – | – | – | 9
3 | CCCC(=O)OCC1(C)O[C@@H]2O[C@@]3(C)CC[C@H]4[C@H](C)CC[C@@H]1[C@@]24OO3 (stereo partly drawn) | 0.0169 µM | 0.0069 µM | > 100 µM | 12.4 µM | 45 µM | 11.9 µM | 8 | > 2 | – | – | – | – | – | – | 8
4 | C[C@@H]1CC[C@H]2C(C)(COC(=O)c3ccco3)O[C@@H]3O[C@@]4(C)CC[C@@H]1[C@]32OO4 (stereo partly drawn) | 0.0092 µM | 0.0031 µM | > 100 µM | > 100 µM | > 100 µM | > 100 µM | 1 | – | – | – | – | – | – | – | 1
5 | CC[C@H]1CN2CCc3cc(OC)c(OC)cc3[C@@H]2C[C@@H]1C[C@H]1NCCc2cc(OC)c(OC)cc21 [EMETINE] | – | – | 0.29 µM | – | – | – | – | – | – | – | – | – | – | – | –
6 | C[C@@H]1CC[C@H]2C(C)(COC(=O)c3cccs3)O[C@@H]3O[C@@]4(C)CC[C@@H]1[C@]32OO4 (stereo partly drawn) | 0.0048 µM | 0.0059 µM | > 100 µM | 11.5 µM | > 100 µM | 9.93 µM | 9 | – | 30 | 30 | 30 | 30 | 30 | 30 | 10
7 | C[C@@H]1CC[C@H]2C(C)(CO)O[C@@H]3O[C@@]4(C)CC[C@@H]1[C@]32OO4 (stereo partly drawn) | 0.0041 µM | 0.0074 µM | > 100 µM | > 100 µM | > 100 µM | > 100 µM | 1 | – | – | – | – | – | – | – | 1
8 | CCCCCC(=O)OCC1(C)O[C@@H]2O[C@@]3(C)CC[C@H]4[C@H](C)CC[C@@H]1[C@@]24OO3 (stereo partly drawn) | 0.0601 µM | 0.0432 µM | > 100 µM | 25.5 µM | 23 µM | 13.9 µM | 4 | > 4 | – | – | – | – | – | – | 7
9 | COc1ccc2nc3cc(Cl)ccc3c(NCCNCCO[C@H]3O[C@@H]4O[C@@]5(C)CC[C@H]6[C@H](C)CC[C@@H]([C@H]3C)[C@@]46OO5)c2c1 | 0.0026 µM | 0.0353 µM | 1.6 µM | 0.38 µM | 0.32 µM | 0.29 µM | 4 | 5 | – | – | – | – | – | – | 6
10 | C[C@H]1[C@@H](O)O[C@@H]2O[C@@]3(C)CC[C@H]4[C@H](C)CC[C@@H]1[C@@]24OO3 [ARTENIMOL] | 0.0022 µM | 0.0012 µM | > 100 µM | 27 µM | 31.2 µM | 42.6 µM | 4 | 3 | – | – | – | – | – | – | 2
11 | COc1ccc2nc3cc(Cl)ccc3c(NCCCN(C)CCO[C@H]3O[C@@H]4O[C@@]5(C)CC[C@H]6[C@H](C)CC[C@@H]([C@H]3C)[C@@]46OO5)c2c1 | 0.0122 µM | 0.0385 µM | 1.2 µM | 0.37 µM | 0.17 µM | 0.23 µM | 3 | 7 | – | – | – | – | – | – | 5
12 | CNCCCNc1c2ccc(Cl)cc2nc2ccc(OC)cc12 | 0.0091 µM | 0.117 µM | 0.5 µM | 3.7 µM | 3.33 µM | 1.43 µM | 0.1 | 0.2 | – | – | – | – | – | – | 0.4
13 | C[C@@H]1CC[C@H]2C(C)(COC(=O)c3ccc([N+](=O)[O-])cc3)O[C@@H]3O[C@@]4(C)CC[C@@H]1[C@]32OO4 (stereo partly drawn) | 0.0067 µM | 0.0026 µM | > 100 µM | 5.15 µM | 4.26 µM | 5.71 µM | 19 | > 24 | – | – | – | – | – | – | 18
14 | CC(=O)OCC1(C)O[C@@H]2O[C@@]3(C)CC[C@H]4[C@H](C)CC[C@@H]1[C@@]24OO3 (stereo partly drawn) | 0.0112 µM | 0.0126 µM | > 100 µM | 85.2 µM | > 100 µM | 42.1 µM | 1 | – | – | – | – | – | – | – | 2
15 | C[C@@H]1CC[C@H]2C(C)(COC(=O)CCc3ccccc3)O[C@@H]3O[C@@]4(C)CC[C@@H]1[C@]32OO4 (stereo partly drawn) | 0.0074 µM | 0.0115 µM | > 100 µM | 24.4 µM | 24.6 µM | 6.36 µM | 4 | > 4 | – | – | – | – | – | – | 16
16 | COc1ccc2nc3cc(Cl)ccc3c(N3CCN(CCO[C@H]4O[C@@H]5O[C@@]6(C)CC[C@H]7[C@H](C)CC[C@@H]([C@H]4C)[C@@]57OO6)C(C)C3)c2c1 (stereo partly drawn) | 0.017 µM | 0.0413 µM | 6 µM | 2.38 µM | 1.59 µM | 0.69 µM | 5 | 4 | – | – | – | – | – | – | 9
17 | COc1ccc2nc3cc(Cl)ccc3c(N3CCNC(C)C3)c2c1 (stereo not drawn) | 0.158 µM | 0.384 µM | 5.6 µM | 4.16 µM | 3.54 µM | 3.47 µM | 1.4 | 1.6 | – | – | – | – | – | – | 1.6
18 | C[C@@H]1CC[C@H]2C(C)(COC(=O)c3ccc(F)cc3)O[C@@H]3O[C@@]4(C)CC[C@@H]1[C@]32OO4 (stereo partly drawn) | 0.0037 µM | 0.0044 µM | > 100 µM | 10.1 µM | 8.11 µM | 7.57 µM | 10 | > 12 | – | – | – | – | – | – | 13
19 | CO[C@H]1O[C@@H]2O[C@@]3(C)CC[C@H]4[C@H](C)CC[C@@H]([C@H]1C)[C@@]24OO3 | – | – | > 100 µM | 42.3 µM | 90.9 µM | 22.5 µM | 2 | 1 | – | – | – | – | – | – | 4
20 | COc1ccc2nc3cc(Cl)ccc3c(N3CCNCC3)c2c1 | 1.49 µM | 1.67 µM | 3.4 µM | 3.26 µM | 3.21 µM | 3.52 µM | 1 | 1.1 | – | – | – | – | – | – | 1
21 | C[C@@H]1CC[C@H]2C(C)(COC(=O)[C@H]3CCCN3C(=O)C(F)(F)F)O[C@@H]3O[C@@]4(C)CC[C@@H]1[C@]32OO4 (stereo partly drawn) | 0.0079 µM | 0.0078 µM | > 100 µM | 9.29 µM | 37.6 µM | 15.6 µM | 11 | 3 | – | – | – | – | – | – | 4
22 | COc1ccc2nc3cc(Cl)ccc3c(N3CCN(CCO[C@H]4O[C@@H]5O[C@@]6(C)CC[C@H]7[C@H](C)CC[C@@H]([C@H]4C)[C@@]57OO6)CC3)c2c1 | 0.267 µM | 0.43 µM | > 100 µM | 54.1 µM | 32.1 µM | 4.8 µM | 3 | 5 | – | – | – | – | – | – | 33
23 | C[C@H]1[C@H](OC(=O)CCC(=O)O)O[C@@H]2O[C@@]3(C)CC[C@H]4[C@H](C)CC[C@@H]1[C@@]24OO3 [SODIUM ARESUNATE] | 0.008 µM | – | > 100 µM | 63.1 µM | 80.2 µM | 61.2 µM | 1.6 | 1 | – | – | – | – | – | – | 1.6
24 | COc1ccc2nc3cc(Cl)ccc3c(NCCN)c2c1 | 0.0139 µM | 0.0807 µM | 1 µM | 2.26 µM | 2.81 µM | 2.07 µM | 0.4 | 0.4 | – | – | – | – | – | – | 0.5
